Activity calls are given as the source filed them.
How the values were obtained:
[1] = biological target: Adenylate kinase 2, mitochondrial (Homo sapiens, UniProt P54819)
[2] = biological target: Citron Rho-interacting kinase (Homo sapiens, UniProt O14578)
[3] = biological target: Serine/threonine-protein kinase pim-1 (Homo sapiens, UniProt P11309)
Ephrin type-A receptor 2 = Ephrin type-A receptor 2 (Homo sapiens, UniProt P29317)
Glycine--tRNA ligase = biological target: T1, Glycine--tRNA ligase (Homo sapiens, UniProt P41250)
T1 sequence (P41250 whole entry): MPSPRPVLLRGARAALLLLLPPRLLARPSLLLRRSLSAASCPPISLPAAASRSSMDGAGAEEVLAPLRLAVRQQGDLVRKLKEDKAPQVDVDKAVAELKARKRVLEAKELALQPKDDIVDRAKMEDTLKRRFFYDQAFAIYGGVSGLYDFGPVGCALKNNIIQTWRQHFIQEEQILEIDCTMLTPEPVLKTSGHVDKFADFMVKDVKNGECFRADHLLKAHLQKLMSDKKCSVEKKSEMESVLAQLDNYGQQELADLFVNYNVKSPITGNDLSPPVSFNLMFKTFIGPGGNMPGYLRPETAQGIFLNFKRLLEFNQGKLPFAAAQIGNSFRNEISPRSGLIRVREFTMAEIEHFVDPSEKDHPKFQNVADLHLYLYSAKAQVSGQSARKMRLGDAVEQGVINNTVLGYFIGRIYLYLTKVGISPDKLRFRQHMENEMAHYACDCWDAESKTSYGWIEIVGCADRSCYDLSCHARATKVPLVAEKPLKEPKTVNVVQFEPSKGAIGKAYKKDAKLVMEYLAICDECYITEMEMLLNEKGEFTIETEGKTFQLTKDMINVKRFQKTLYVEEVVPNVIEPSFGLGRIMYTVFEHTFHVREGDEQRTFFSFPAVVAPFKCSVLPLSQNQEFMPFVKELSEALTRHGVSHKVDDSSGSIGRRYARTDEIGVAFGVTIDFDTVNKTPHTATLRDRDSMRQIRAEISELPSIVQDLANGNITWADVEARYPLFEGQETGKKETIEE

Pyridoxal kinase = biological target: T2, Pyridoxal kinase (Homo sapiens, UniProt O00764)
T2 sequence (O00764 whole entry): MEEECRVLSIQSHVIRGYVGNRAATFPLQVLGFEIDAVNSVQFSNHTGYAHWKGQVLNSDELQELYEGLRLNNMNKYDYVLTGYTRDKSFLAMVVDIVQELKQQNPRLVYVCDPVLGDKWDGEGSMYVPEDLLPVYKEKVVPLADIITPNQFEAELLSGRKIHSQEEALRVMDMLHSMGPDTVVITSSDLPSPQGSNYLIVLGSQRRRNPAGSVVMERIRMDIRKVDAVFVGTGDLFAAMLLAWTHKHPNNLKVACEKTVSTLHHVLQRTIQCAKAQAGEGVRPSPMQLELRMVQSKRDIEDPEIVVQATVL

[4] = biological target: Myosin light chain kinase, smooth muscle (Homo sapiens, UniProt Q15746)
[5] = biological target: Serine/threonine-protein kinase PAK 2 (Homo sapiens, UniProt Q13177)
[6] = biological target: Tyrosine-protein kinase ABL1 (Homo sapiens, UniProt P00519)
ADP/ATP translocase 3 = biological target: T3, ADP/ATP translocase 3 (Homo sapiens, UniProt P12236)
T3 sequence (P12236 whole entry): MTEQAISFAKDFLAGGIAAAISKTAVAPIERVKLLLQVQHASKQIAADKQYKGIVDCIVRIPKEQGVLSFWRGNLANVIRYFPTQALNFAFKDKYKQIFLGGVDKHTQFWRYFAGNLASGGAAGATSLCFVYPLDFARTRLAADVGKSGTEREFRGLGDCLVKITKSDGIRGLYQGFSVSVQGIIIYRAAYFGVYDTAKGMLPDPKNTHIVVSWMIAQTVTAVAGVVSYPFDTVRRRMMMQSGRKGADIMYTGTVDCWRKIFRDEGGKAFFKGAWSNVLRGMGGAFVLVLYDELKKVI

[7] = biological target: Cyclin-dependent kinase 4 (Homo sapiens, UniProt P11802)
[8] = biological target: T4, Serine/threonine-protein kinase ICK (Homo sapiens, UniProt Q9UPZ9)
T4 sequence (Q9UPZ9 whole entry): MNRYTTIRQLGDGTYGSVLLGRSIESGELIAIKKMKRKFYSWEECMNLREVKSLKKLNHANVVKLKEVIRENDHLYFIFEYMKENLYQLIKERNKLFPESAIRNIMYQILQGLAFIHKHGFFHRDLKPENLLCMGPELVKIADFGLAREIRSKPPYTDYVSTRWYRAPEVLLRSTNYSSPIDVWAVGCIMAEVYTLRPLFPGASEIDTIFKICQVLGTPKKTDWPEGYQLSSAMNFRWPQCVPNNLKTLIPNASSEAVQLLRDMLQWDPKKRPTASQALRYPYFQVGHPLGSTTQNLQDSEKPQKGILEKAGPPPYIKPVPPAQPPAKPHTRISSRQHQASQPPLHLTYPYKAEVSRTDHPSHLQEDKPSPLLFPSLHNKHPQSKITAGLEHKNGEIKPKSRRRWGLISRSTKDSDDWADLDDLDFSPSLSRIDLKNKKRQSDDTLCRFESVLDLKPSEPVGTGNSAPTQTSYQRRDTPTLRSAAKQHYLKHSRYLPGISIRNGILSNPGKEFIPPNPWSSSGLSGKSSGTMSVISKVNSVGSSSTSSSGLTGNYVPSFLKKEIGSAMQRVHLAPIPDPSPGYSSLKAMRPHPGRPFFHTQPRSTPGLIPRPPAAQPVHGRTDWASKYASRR

[9] = biological target: Rho-associated protein kinase 2 (Homo sapiens, UniProt O75116)
Also: in the data inactive means no Kd found up to 30 µM.

Chain of Tyrosine-protein kinase ABL1 (P00519 whole entry): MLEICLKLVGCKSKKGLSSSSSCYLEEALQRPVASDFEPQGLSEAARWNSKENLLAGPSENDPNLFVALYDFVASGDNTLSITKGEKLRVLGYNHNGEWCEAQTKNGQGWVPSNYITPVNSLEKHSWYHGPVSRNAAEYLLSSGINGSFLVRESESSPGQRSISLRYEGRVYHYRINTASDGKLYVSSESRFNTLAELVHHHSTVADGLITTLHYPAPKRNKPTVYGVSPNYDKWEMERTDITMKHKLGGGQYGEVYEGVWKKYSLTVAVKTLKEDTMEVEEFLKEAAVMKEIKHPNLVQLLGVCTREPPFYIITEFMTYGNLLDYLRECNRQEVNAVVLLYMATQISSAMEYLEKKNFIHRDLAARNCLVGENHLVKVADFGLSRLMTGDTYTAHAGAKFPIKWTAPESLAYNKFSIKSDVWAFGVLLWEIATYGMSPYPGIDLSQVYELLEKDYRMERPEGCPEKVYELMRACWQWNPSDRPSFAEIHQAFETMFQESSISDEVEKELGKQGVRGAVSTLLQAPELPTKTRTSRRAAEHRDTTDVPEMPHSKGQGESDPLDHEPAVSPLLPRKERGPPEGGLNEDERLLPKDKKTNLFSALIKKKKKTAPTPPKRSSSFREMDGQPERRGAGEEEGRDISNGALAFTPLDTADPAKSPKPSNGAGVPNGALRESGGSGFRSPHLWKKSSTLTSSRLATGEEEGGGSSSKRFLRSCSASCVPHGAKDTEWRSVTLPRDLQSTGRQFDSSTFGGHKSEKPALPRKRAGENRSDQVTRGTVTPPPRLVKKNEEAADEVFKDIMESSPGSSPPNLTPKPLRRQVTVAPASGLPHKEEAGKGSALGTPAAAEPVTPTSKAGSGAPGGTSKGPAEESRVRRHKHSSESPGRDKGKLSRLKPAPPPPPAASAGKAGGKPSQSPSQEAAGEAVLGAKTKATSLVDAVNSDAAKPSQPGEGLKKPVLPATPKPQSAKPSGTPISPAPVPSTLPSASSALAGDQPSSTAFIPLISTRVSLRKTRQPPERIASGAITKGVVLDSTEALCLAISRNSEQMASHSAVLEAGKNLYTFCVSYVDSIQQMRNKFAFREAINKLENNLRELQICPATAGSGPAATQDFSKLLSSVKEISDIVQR
Chain of Serine/threonine-protein kinase pim-1 (P11309 whole entry): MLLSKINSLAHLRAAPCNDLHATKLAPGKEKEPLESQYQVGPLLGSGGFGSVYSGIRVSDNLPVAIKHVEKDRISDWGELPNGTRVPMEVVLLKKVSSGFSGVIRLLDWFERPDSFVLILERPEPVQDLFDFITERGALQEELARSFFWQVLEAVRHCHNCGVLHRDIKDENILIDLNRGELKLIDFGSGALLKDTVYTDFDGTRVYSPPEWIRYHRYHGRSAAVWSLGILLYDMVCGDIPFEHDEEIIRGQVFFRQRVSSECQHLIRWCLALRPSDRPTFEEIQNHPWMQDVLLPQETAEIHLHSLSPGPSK
Chain of Serine/threonine-protein kinase PAK 2 (Q13177 whole entry): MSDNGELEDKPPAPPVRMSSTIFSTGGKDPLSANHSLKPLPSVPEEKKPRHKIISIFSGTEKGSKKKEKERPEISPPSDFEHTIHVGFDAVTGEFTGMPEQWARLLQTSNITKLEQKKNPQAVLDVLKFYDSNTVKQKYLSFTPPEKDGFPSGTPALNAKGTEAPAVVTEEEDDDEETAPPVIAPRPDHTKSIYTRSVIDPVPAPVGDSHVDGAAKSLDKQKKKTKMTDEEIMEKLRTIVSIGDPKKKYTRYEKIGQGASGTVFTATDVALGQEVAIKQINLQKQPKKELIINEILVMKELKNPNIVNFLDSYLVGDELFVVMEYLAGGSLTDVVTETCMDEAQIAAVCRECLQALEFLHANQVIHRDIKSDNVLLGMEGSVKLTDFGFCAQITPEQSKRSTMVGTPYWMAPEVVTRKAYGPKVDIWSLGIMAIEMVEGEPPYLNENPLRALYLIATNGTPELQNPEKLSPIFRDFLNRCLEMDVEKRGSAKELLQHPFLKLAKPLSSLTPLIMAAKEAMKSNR
Chain of Citron Rho-interacting kinase (O14578 whole entry): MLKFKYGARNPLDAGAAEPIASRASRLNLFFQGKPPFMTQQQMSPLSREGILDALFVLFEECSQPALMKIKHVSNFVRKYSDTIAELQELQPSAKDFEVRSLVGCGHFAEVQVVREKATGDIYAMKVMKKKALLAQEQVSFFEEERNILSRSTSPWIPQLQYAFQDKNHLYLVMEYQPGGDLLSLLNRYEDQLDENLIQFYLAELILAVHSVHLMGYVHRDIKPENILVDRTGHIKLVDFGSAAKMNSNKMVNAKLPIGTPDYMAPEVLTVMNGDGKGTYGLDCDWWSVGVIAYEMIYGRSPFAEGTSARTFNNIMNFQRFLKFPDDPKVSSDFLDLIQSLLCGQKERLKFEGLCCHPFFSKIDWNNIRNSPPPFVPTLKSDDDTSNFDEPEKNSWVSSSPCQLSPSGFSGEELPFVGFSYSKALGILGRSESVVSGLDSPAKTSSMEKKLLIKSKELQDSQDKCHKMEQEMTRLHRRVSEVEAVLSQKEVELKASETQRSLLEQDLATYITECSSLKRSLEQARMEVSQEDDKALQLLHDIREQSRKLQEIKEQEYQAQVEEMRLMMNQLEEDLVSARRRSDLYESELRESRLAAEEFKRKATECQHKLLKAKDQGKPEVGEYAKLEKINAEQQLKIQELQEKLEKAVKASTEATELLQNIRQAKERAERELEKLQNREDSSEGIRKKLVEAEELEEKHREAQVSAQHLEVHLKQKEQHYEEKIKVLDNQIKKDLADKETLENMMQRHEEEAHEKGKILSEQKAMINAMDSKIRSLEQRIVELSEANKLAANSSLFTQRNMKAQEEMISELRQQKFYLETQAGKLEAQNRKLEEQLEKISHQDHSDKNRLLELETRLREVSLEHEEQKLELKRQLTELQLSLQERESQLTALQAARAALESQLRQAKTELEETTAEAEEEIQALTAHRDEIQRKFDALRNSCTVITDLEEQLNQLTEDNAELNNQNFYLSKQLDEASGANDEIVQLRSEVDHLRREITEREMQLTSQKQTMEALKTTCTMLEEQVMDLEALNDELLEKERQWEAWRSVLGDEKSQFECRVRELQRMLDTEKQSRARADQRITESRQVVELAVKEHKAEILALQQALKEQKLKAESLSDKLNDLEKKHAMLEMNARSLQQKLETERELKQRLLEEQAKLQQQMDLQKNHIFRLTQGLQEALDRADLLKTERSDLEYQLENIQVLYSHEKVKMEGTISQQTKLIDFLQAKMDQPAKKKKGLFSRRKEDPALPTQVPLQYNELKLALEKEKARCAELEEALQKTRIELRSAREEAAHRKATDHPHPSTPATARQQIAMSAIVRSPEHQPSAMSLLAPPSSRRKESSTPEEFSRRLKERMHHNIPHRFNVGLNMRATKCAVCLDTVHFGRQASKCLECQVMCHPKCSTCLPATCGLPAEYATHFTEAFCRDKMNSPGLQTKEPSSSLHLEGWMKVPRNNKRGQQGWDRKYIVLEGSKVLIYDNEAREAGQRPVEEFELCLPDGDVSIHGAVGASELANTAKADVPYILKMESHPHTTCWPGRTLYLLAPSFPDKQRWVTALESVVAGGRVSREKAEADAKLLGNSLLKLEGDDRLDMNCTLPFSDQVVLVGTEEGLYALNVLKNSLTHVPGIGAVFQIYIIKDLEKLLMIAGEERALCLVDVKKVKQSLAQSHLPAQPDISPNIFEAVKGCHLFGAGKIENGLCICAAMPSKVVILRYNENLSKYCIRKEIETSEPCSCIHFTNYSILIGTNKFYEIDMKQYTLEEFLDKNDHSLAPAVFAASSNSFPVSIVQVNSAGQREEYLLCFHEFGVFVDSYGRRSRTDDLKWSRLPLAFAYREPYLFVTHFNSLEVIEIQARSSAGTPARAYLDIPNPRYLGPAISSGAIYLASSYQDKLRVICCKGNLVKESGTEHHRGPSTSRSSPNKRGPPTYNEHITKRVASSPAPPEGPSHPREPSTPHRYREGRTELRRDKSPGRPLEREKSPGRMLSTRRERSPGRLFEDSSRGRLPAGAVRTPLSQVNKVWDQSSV
Chain of Cyclin-dependent kinase 4 (P11802 whole entry): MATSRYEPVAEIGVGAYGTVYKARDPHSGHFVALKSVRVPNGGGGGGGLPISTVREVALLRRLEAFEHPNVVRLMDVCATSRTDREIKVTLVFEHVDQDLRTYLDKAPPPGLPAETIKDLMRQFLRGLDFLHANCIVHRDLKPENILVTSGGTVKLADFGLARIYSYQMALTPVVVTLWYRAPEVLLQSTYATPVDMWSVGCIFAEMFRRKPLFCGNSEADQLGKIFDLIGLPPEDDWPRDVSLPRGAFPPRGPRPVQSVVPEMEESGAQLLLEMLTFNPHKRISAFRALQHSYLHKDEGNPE

Row | Compound | Kd [1] | Kd [2] | Kd [3] | Kd (Ephrin type-A receptor 2) | Kd (Glycine--tRNA ligase) | Kd (Pyridoxal kinase) | Kd [4] | Kd [5] | Kd [6] | Kd (ADP/ATP translocase 3) | Kd [7] | Kd [8] | Kd [9]
1 | CC(=O)c1cnc2ccc(-c3cc(Cl)c(O)c(Cl)c3)nc2c1N[C@H]1CC[C@H](CN(C)C)CC1 | > 30 µM (inactive) | 0.098 µM (active) | 0.014 µM (active) | 0.11 µM (active) | > 30 µM (inactive) | > 30 µM (inactive) | > 30 µM (inactive) | > 30 µM (inactive) | 0.28 µM (active) | > 30 µM (inactive) | > 30 µM (inactive) | > 30 µM (inactive) | > 30 µM (inactive)
2 | Cc1nc2cc(-c3nn(C(C)C)c4ncnc(N)c34)ccc2o1 | > 30 µM (inactive) | > 30 µM (inactive) | > 30 µM (inactive) | > 30 µM (inactive) | > 30 µM (inactive) | > 30 µM (inactive) | > 30 µM (inactive) | > 30 µM (inactive) | > 30 µM (inactive) | > 30 µM (inactive) | > 30 µM (inactive) | > 30 µM (inactive) | > 30 µM (inactive)
3 | COCc1c(-c2ccc(NC(=O)Nc3cc(C(F)(F)F)ccc3F)c(F)c2)c2c(N)ncnn2c1CN1CCOCC1 | > 30 µM (inactive) | > 30 µM (inactive) | > 30 µM (inactive) | > 30 µM (inactive) | > 30 µM (inactive) | > 30 µM (inactive) | > 30 µM (inactive) | > 30 µM (inactive) | > 30 µM (inactive) | > 30 µM (inactive) | > 30 µM (inactive) | > 30 µM (inactive) | > 30 µM (inactive)
4 | Nc1ncnc2c1c(-c1cccc(OCc3ccccc3)c1)cn2[C@H]1C[C@@H](CN2CCC2)C1 [AEW-541] | > 30 µM (inactive) | > 30 µM (inactive) | > 30 µM (inactive) | > 30 µM (inactive) | > 30 µM (inactive) | > 30 µM (inactive) | > 30 µM (inactive) | > 30 µM (inactive) | > 30 µM (inactive) | > 30 µM (inactive) | > 30 µM (inactive) | > 30 µM (inactive) | 18.3 µM (active)
5 | Cc1nc(NC(=O)N2CCC[C@H]2C(N)=O)sc1-c1ccnc(C(C)(C)C(F)(F)F)c1 [ALPELISIB] | > 30 µM (inactive) | > 30 µM (inactive) | > 30 µM (inactive) | > 30 µM (inactive) | > 30 µM (inactive) | > 30 µM (inactive) | > 30 µM (inactive) | > 30 µM (inactive) | > 30 µM (inactive) | > 30 µM (inactive) | > 30 µM (inactive) | > 30 µM (inactive) | > 30 µM (inactive)
6 | Cc1csc(-c2nnc(Nc3ccc(Oc4ncccc4-c4ccnc(N)n4)cc3)c3ccccc23)c1 [AMG-900] | > 30 µM (inactive) | > 30 µM (inactive) | > 30 µM (inactive) | > 30 µM (inactive) | > 30 µM (inactive) | > 30 µM (inactive) | > 30 µM (inactive) | > 30 µM (inactive) | 1.9 µM (active) | > 30 µM (inactive) | > 30 µM (inactive) | > 30 µM (inactive) | > 30 µM (inactive)
7 | C=CC(=O)Nc1cc2c(Nc3ccc(F)c(Cl)c3)ncnc2cc1C#CC(C)(C)N1CCN(C)CC1 [AV-412 FREE BASE] | > 30 µM (inactive) | > 30 µM (inactive) | > 30 µM (inactive) | > 30 µM (inactive) | > 30 µM (inactive) | > 30 µM (inactive) | > 30 µM (inactive) | > 30 µM (inactive) | > 30 µM (inactive) | > 30 µM (inactive) | > 30 µM (inactive) | > 30 µM (inactive) | > 30 µM (inactive)
8 | COc1cc2ncnc(Oc3cccc(NC(=O)Nc4cc(C(C)(C)C(F)(F)F)on4)c3)c2cc1OC [CEP-32496] | > 30 µM (inactive) | > 30 µM (inactive) | > 30 µM (inactive) | – | > 30 µM (inactive) | > 30 µM (inactive) | 2.68 µM (active) | > 30 µM (inactive) | 0.05 µM (active) | > 30 µM (inactive) | > 30 µM (inactive) | > 30 µM (inactive) | > 30 µM (inactive)
9 | CNC(=O)c1cccc2cc(Oc3ccnc4cc(OCC5(N)CC5)c(OC)cc34)ccc12 [LUCITANIB] | > 30 µM (inactive) | > 30 µM (inactive) | > 30 µM (inactive) | > 30 µM (inactive) | > 30 µM (inactive) | 16.4 µM (active) | – | > 30 µM (inactive) | > 30 µM (inactive) | > 30 µM (inactive) | > 30 µM (inactive) | > 30 µM (inactive) | > 30 µM (inactive)
10 | CN(C[C@@H]1COCCO1)S(=O)(=O)Nc1ccc2ccc3ncc(-c4cnn(C)c4)cc3c(=O)c2c1 [MK-2461] | > 30 µM (inactive) | > 30 µM (inactive) | > 30 µM (inactive) | > 30 µM (inactive) | > 30 µM (inactive) | > 30 µM (inactive) | > 30 µM (inactive) | > 30 µM (inactive) | > 30 µM (inactive) | > 30 µM (inactive) | > 30 µM (inactive) | – | > 30 µM (inactive)
11 | FC(F)(F)c1ccc(/C=C/c2nc(COc3ccc(CCCCn4ccnn4)cc3)co2)cc1 [MUBRITINIB] | > 30 µM (inactive) | > 30 µM (inactive) | > 30 µM (inactive) | > 30 µM (inactive) | > 30 µM (inactive) | > 30 µM (inactive) | > 30 µM (inactive) | > 30 µM (inactive) | > 30 µM (inactive) | > 30 µM (inactive) | – | > 30 µM (inactive) | > 30 µM (inactive)
12 | Cn1ncc(Cl)c1-c1cc(C(=O)N[C@H](CN)Cc2ccc(F)c(F)c2)oc1Cl [UPROSERTIB] | > 30 µM (inactive) | > 30 µM (inactive) | > 30 µM (inactive) | > 30 µM (inactive) | > 30 µM (inactive) | > 30 µM (inactive) | > 30 µM (inactive) | > 30 µM (inactive) | > 30 µM (inactive) | > 30 µM (inactive) | > 30 µM (inactive) | – | 2.28 µM (active)
13 | C[C@@H](N)c1ccc(C(=O)Nc2ccnc3[nH]ccc23)cc1 [Y-39983] | > 30 µM (inactive) | 0.033 µM (active) | > 30 µM (inactive) | > 30 µM (inactive) | > 30 µM (inactive) | > 30 µM (inactive) | > 30 µM (inactive) | > 30 µM (inactive) | > 30 µM (inactive) | > 30 µM (inactive) | > 30 µM (inactive) | > 30 µM (inactive) | –

Source: ChEMBL document CHEMBL3991601, “The target landscape of clinical kinase drugs” (Science, 2017)
